Data set [1] in a line: Rat pharmacokinetics after IV infusion and oral dose (AUC oral, % F, Ue % PO). The format is in vivo, Male Wistar Han rats. The settings on record: for DNAUC oral h*uM: PO 5 mg/kg, dose normalized AUC in blood, n = 3; for bioavailability: male, Wistar Han, whole blood; for bioavailability / %F: oral bioavailability, PO 5 mg/kg vs IV infusion 1 mg/kg; for Ue% po: percentage of oral dose eliminated unchanged in urine (or estimate from iv urine fraction times oral bioavailability). The text has this: General Assays for Obtaining AUC Oral h*μm, % F, and Ue % PO Values
Male Wistar Han rats were purchased from Vital River Laboratory Animal Technology Co. Ltd (Beijing, China). The animals were approx. 6-8 weeks old with body weights of 200-300 g on the dosing date. The animals were housed in a 12-hour light/12-hour dark cycle environment and had free access to food and water. All animals were fed prior to dosing. Studies were approved by the Pharmaron Institutional Animal Care and Use Committee (IACUC).
Test article was administered as an intravenous infusion for 1 hour (1 mg/kg) at 5 mL/kg/h. After 48 h, animals received a single oral dose (5 mg/kg, free form) at a dose volume of 10 mL/kg, respectively. Blood samples were collected at various time points after IV infusion and PO administrations. Urine samples were collected at various time points after IV infusion and PO administrations (for some compounds).
Test article was dissolved in DMSO with vortexing and sonification to obtain a stock solution. An aliquot of the stock solution was mixed with 10% HP-β-CD in saline with vortexing to obtain a solution with concentration at 0.2 mg/mL of test article.
Test article was added into 1% Methyl Cellulose with vortexing and sonication to obtain a homogeneous suspension with concentration at 0.5 mg/mL of test article.
For IV infusion (1 mg/kg) administration, blood samples were collected from each animal at 0, 0.25, 0.5, 0.75, 1, 1.08, 1.25, 1.5, 1.75, 2, 3, 5, 8, 12, 24 hour post-dose.
For PO (5 mg/kg) administration, blood samples were collected from each animal at 0, 0.25, 0.5, 1, 1.5, 2, 3, 4, 6, 8, 12, 24 hour post-dose.
Blood samples (50 μL) were collected from each animal via jugular vein. These blood samples were placed into tubes containing K2EDTA. Whole blood was mixed with same volume of water and inverted several times. The blood samples were stored at −75±15° C. until analysis.
For IV infusion (1 mg/kg) administration, urine samples were collected from each animal at 0-4, 4-8, 8-12, 12-24 hour post-dose.
For PO (5 mg/kg) administration, urine samples were collected (for some compounds) from each animal at 0-4, 4-8, 8-12, 12-24 hour post-dose.
55 μL of standards, 55 μL of QC samples or 55 μL of unknown samples (50 μL of blood or urine with 5 μL 50% acetonitrile) were mixed to 200 μL of acetonitrile containing IS (dexamethasone) to precipitate proteins. Then the samples were vortexed for 30 sec. After centrifugation at 4° C., 4700 rpm for 30 min, and 5 μL of the supernatant was injected into the LC-MS/MS system for quantitative analysis.
Test article blood and urine concentrations for each animal following IV infusion at 1 mg/kg and PO at 5 mg/kg were used to calculate pharmacokinetic parameters by employing a non-compartmental analysis (Phoenix™ WinNonlin® 7.0). The linear trapezoidal algorithm was used for AUC calculation. • AUC oral h*μM: Area under the curve (AUC) of drug concentration in blood vs. time (units: h*μM) following oral administration • % F: Oral bioavailability (%) derived from the ratio of dose-normalized AUC following PO and IV administration • Ue % PO: Percentage of oral dose eliminated unchanged in urine or an estimater of that parameter generated from using the percentage of the iv dose eliminated in the urine times the oral bioavailability

The next data set addresses T1, FimH (Escherichia coli, UniProt Q1R2J4).
T1 construct: endogenous in cells; host or cells: E. coli UTI89 (whole bacteria)
As to the kind of experiment: Hemagglutination inhibition (HAI) assay with UTI89 bacteria and guinea pig red blood cells. Also: ranges in brackets are in nM. The format is cell-based. The settings on record: HAI titer (EC>90): concentration reducing bacterial agglutination of guinea pig red blood cells by greater than 90%. Here is the method: “HAI titer or EC>90” is that concentration of the FimH inhibitor/antagonist which reduces the bacterial agglutination of guinea pig red blood cells by greater than 90%.
The activities of the Examples 1-34 compounds above as FimH antagonists/inhibitors were obtained by the following assay(s), and results are provided in Table 1. Results not provided mean that the activities have not yet been tested.
Hemagglutination Inhibition Assay (HAI)
The hemagglutination inhibition (HAI) assay was performed with UTI89 bacteria and guinea pig red blood cells, as previously described (S. J. Hultgren, W. R. Schwan, A. J. Schaeffer, J. L. Duncan Infect. Immun. 1986, 54, 613-620 and Jarvis, C.; Han, Z.; Kalas, V.; Klein, R.; Pinkner, J. S.; Ford, B.; Binkley, J.; Cusumano, C. K.; Cusumano, Z.; Mydock-McGrane, L.; Hultgren, S. J.; Janetka, J. W., Chem Med Chem 2016, 11, 367-373). Values not listed were not tested.

For `Cc1cc(-c2cncc(C(F)(F)F)c2)ccc1[C@@H](C)[C@H]1O[C@H](CO)[C@@H](O)[C@H](O)[C@@H]1O` [Example 4, (2R,3S,4R,5S,6R)-2-(Hydroxymethyl)-6-((R)-1-(2-methyl-4-(5-(trifluoromethyl)pyridin-3-yl)phenyl)ethyl)tetrahydro-2H-pyran-3,4,5-triol], in data set [1], the “DNAUC oral h*uM” value is given as ““++” (0.5 ≤ x ≤ h · μM)”, the bioavailability was > 30% and the Ue% po entry is ““+++” (>5%)”. For the same compound, on FimH, the HAI result is ““++++” (<50)”.
On the same counts, the results for `Cc1cc(-c2cc(F)c(Cl)c(F)c2)ccc1[C@@H](CO)[C@H]1O[C@H](CO)[C@@H](O)[C@H](O)[C@@H]1O` [Example 7, (2R,3S,4R,5S,6R)-2-((S)-1-(4′-chloro-3′,5′-difluoro-3-methyl-[1,1′-biphenyl]-4-yl)-2-hydroxyethyl)-6-(hydroxymethyl)tetrahydro-2H-pyran-3,4,5-triol] are ““++” (0.5 ≤ x ≤ h · μM)”, 10 to 30%, ““++” (0.5 ≤ x ≤ 5%)” and ““++++” (<50)”.
As to `Cc1cc(-c2cc(F)c(Cl)c(F)c2)ccc1[C@@H](CCO)[C@H]1O[C@H](CO)[C@@H](O)[C@H](O)[C@@H]1O` [Example 14], the “DNAUC oral h*uM” value in data set [1] is ““+” (<0.5 h · μM)”. Also, the HAI result at FimH is ““++++” (<50)”.
The corresponding values for `C=C[C@H](c1ccc(-c2cc(F)c3nccnc3c2)cc1C)[C@H]1O[C@H](CO)[C@@H](O)[C@H](O)[C@@H]1O` [Example 15] are ““+” (<0.5 h · μM)” and ““++++” (<50)”.
As for `CC[C@H](c1ccc(-c2ccn(C)c(=O)c2)cc1C)[C@H]1O[C@H](CO)[C@@H](O)[C@H](O)[C@@H]1O` [Example 16], in data set [1], the “DNAUC oral h*uM” value was ““+” (<0.5 h · μM)”. The HAI entry at FimH is reported as ““+++” (50-200)”.
Consider `C=C[C@H](c1ccc(-c2cnc(C3CC3)cn2)cc1C)[C@H]1O[C@H](CO)[C@@H](O)[C@H](O)[C@@H]1O` [Example 19], for which, in data set [1], the “DNAUC oral h*uM” value was ““+” (<0.5 h · μM)”. The HAI entry at FimH was ““++++” (<50)”.
As for `CC[C@H](c1ccc(-c2cncc(C#N)c2)cc1C)[C@H]1O[C@H](CO)[C@@H](O)[C@H](O)[C@@H]1O` [Example 21], the “DNAUC oral h*uM” value in data set [1] is on record as ““+” (<0.5 h · μM)”. For the same compound, the HAI entry on FimH was ““+++” (50-200)”.
On to `Cc1cc(-c2cncc(C(F)(F)F)n2)ccc1[C@@H](C)[C@H]1O[C@H](CO)[C@@H](O)[C@H](O)[C@@H]1O` [Example 29], for which, in data set [1], the “DNAUC oral h*uM” value was ““+” (<0.5 h · μM)”, the bioavailability is 10 to 30% and the Ue% po entry is ““++” (0.5 ≤ x ≤ 5%)”. At FimH, the HAI entry is on record as ““++++” (<50)”.
On to “(2R,3S,4R,5S,6R)-2-(Hydroxymethyl)-6-((R)-1-(2-methyl-4-(5-(trifluoromethyl)pyrazin-2-yl)phenyl)allyl)tetrahydro-2H-pyran-3,4,5-triol [Example 6]”, for which, in data set [1], the “DNAUC oral h*uM” value is ““+” (<0.5 h · μM)” and the “%F” value is reported as ““++” (10 ≤ x ≤ 30%)”. Further, the HAI result on FimH was ““+++” (50-200)”.
For the compound “(2R,3S,4R,5S,6R)-2-(Hydroxymethyl)-6-((R)-1-(2-methyl-4-(5-(trifluoromethyl)pyrazin-2-yl)phenyl)propyl)tetrahydro-2H-pyran-3,4,5-triol [Example 5]”, in data set [1], the “DNAUC oral h*uM” value is given as ““+” (<0.5 h · μM)”, the “%F” value is listed as ““++” (10 ≤ x ≤ 30%)” and the Ue% po result is ““++” (0.5 ≤ x ≤ 5%)”. For the same compound, the HAI entry on FimH was ““+++” (50-200)”.

In general, bioavailability refers to dose-corrected exposure relative to a reference, in per cent. Low readings indicate poor availability, high ones good availability.

The record behind these values is US12297223B2, “Compounds” (GLAXOSMITHKLINE INTELLECTUAL PROPERTY DEVELOPMENT LIMITED, priority 2019, dated 2025).
